# According to patent US20130095059A1, “INHALED NO DONOR KMUPS DERIVATIVE PREVENTING ALLERGIC PULMONARY VASCULAR AND BRONCHIAL INFLAMMATION VIA SUPPRESSED CYTOKINES, INOS AND INFLAMMATORY CELL COUNTS IN ASTHMA MODEL” (priority 2007, published 2013):
# How the values were obtained:
# [1] = test system: 5-HT; assay: Plasma 5-HT levels in MCT-treated rats (Serotonin EIA); type: in vivo, Wistar rats; settings: MCT-PAH rats, non-treated MCT-PAH 4.2±0.7
# Procedure: The experiments were performed in adult male Wistar rats (300 to 350 g) in accordance with institutional guidelines after approval by the ethical review committee. PAH development and pulmonary expression of 5-HTT were examined in rats after 60 mg/kg single injection (i.p.) of monocrotaline (MCT). To assess the potential preventive effect of KMUP-1 on MCT-induced PAH and associated proliferation, we assigned rats at random to 2 groups of 8 animals which received KMUP-1 at 5 mg/kg/day p.o or 1 mg/kg/day i.p. All treatments were given once a day for 3 weeks after a single MCT injection (60 mg/kg i.p.) (Abe et al., 2004). On day 21, rats were anesthetized and pulmonary artery blood pressure (MPAP) was recorded as previously described. Lung tissues were dissected for Western blotting and immunohistochemistry.
# After MCT-treatment, rats acquired severe PAH and received sodium pentobarbital (40 mg/kg, i.p.) at day 21 for surgical anesthesia and measurement of MPAP (Chung et al., 2010). Blood samples (1.0 mL) were obtained from the heart. Blood was transferred to plastic tubes that included EDTA and was centrifuged at 100 g for 20 min. The plasma was transferred to tubes and stored at −80° C. until analysis. Plasma 5-HT levels were determined using commercially available Serotonin EIA (IBL, Minneapolis, USA). […] Results were read from a standard curve. […]
# [2] = test system: PCNA; assay: PASMCs proliferation (PCNA) in MCT-treated lung tissues; type: in vivo, rats; settings: day 21 after MCT injection
# Procedure: We evaluated proliferating cell nuclear antigen (PCNA) to assess PASMCs proliferation in rats treated with MCT alone or with KMUP-1. Lung tissue sections were de-paraffinized in xylene and then treated with a graded series of alcohol washes, rehydrated in PBS (pH 7.5), and incubated with target retrieval solution (DAKO Co, Tokyo, Japan) in a water bath at 90° C. for 20 min. Endogenous peroxidase activity was blocked with H2O2 in PBS (3%, vol/vol) for 5 min. Slides were then washed in PBS, incubated for 30 min in a protein blocking solution, and incubated for 30 min with anti-PCNA mouse monoclonal antibody (PC-10, 1:200, Dako). Antibodies were washed off, and the slides were processed with an […] LSAB and system horseradish peroxidase detection kit (DAKO Co, Tokyo, Japan). Brown color was generated with a DAB substrate, and nuclei were counter-stained with hematoxylin.
# [3] = test system: 5-HTT; assay: 5-HT-induced 5-HTT expression in PASMCs (Western blotting); type: cell-based, Wistar rats
# Procedure: (§1) PASMCs were stimulated with 5-HT or not, as indicated. Cells were treated with KMUP-1 for 24 h before 5-HT stimulation. Whole lysates were collected and resolved by SDS-PAGE as previously described. Primary antibodies were anti-β-actin at: 1:10,000 dilution and anti-RhoA, anti-ROCK, antiphospho-ERK1/2, anti-phospho-AKT, anti-ERK1/2, anti-AKT, anti-5HTT, anti-5-HT2B and anti-eNOS at 1:1000. All blots were incubated with antibodies at 4° C. overnight. After being washed, the appropriate secondary antibodies were added at a dilution of 1:1000 for 1 h at room temperature. After extensive washing, blots were developed with a Super Signal enhanced chemiluminescence kit (Biorad, CA, USA) and visualized on Kodak AR film.
# (§2) The expression of RhoA/ROCK and phosphorylation of ERK1/2 and AKT kinase in PASMCs were assessed by incubating the PASMCs with 5-HT (10 μM) for 15 min (peak time for RhoA/ROCK, ERK1/2 and AKT phosphorylation) and 5-HTT for 10 min (peak time for 5-HTT) after KMUP-1 (1-100 μM) was added to the culture of PASMCs for 24 h.
# [4] = test system: ROCK; assay: 5-HT-induced ROCK expression in PASMCs; type: cell-based, Wistar rats; settings: 1-100 μM, 24 h
# Procedure: as §1, §2
# [5] = test system: ERK1/2; assay: 5-HT-induced ERK1/2 phosphorylation in PASMCs; type: cell-based, Wistar rats; settings: 1-100 μM, 24 h pre-incubation
# Procedure: as §1, §2
# [6] = test system: eNOS; assay: Expression of eNOS in HPAEC; type: cell-based, human
# Procedure: HPAEC purchased from ATCC were maintained in humidified incubator containing 5% CO2 at 37° C. HPAEC were cultured in F-12 supplemented with 10% fetal bovine serum. The culture medium was changed every 3 days and cells were subcultured until confluence. HPAEC were harvested with a solution of trypsin-EDTA (GIBCO BRL, NY, USA) while in a logarithmic phase of growth. HPAEC were used between passages 4-8.
# To measure the expression of eNOS and 5-HT2B receptor in HPAEC after incubation with KMUP-1 (1-100 μM) for 24 h, whole lysates were collected for Western blotting assay. The relative density was determined using NIH imaging software.
# [7] = test system: IL-13; assay: Ovalbumine model, plasma IL-13 (ELISA); type: in vivo, mice; settings: mice sensitized and challenged by ovalbumine
# Procedure: In this long-term experiment, 6-8 week old BALB/c female mice were sensitized on days 1 and 8 by intra-peritoneal injection (i.p.) of ovalbumine (10 μg) (Sigma-Aldrich, Schnelldorf, Germany) adsorbed to 2 mg aluminum hydroxide (AlumInject; Perbio, Erembodegem, Belgium). Mice were divided into three groups. In Group 1, a control group was only exposed to saline nebulization by aerosol. The other 2 groups were subjected to ovalbumine (1%) nebulization. Before each challenge with ovalbumine, mice were either exposed to saline nebulization (Group 2) or KMUP-1 nebulization (5 mM) for 30 min by aerosol (Group 3).
compound,measurement,setting,value
"Cn1c(=O)c2c(ncn2CCN2CCN(c3ccccc3Cl)CC2)n(C)c1=O [KMUP-1, 7-[2-[4-(2-chlorophenyl)piperazinyl]ethyl]-1,3-dimethylxanthine]",plasma concentration of 5-HT,[1]; 1 mg/kg i.p.,3.2 ± 0.6 ng/mL
same,plasma concentration of 5-HT,[1]; 5 mg/kg p.o.,3.2 ± 0.5 ng/mL
same,number of PCNA-positive cells in pulmonary artery walls,[2],markedly lower
same,5-HT-induced expression of 5-HTT,[3]; 10 μM,inhibited
same,5-HT-induced expression of 5-HTT,"[3]; 1-100 μM, 24 h, then 5-HT 10 min",dose-dependently inhibited
same,5-HT-induced ROCK,[4],significantly inhibited
same,5-HT-stimulated ERK1/2 phosphorylation,[5],concentration-dependently reduced
same,expression of eNOS compared to 5-HT treatment alone,"[6]; 10 μM, 24 h before adding 5-HT",raised
same,eNOS expression in cultured HPAEC,"[6]; 1-100 μM, 24 h",dose-dependently increased
same,IL-13 levels in the plasma,[7],inhibited
